By pIC50 is commonly meant the IC50 on a negative log10 scale, so that one unit is a factor of ten. Lower therefore signals a large IC50.

In the first test the target is T1, human CXCR3 (Homo sapiens, UniProt P49682).
T1 construct: expressed in transfected cells; host or cells: CHO cells (membrane preparation)
T1 sequence (P49682 1-368): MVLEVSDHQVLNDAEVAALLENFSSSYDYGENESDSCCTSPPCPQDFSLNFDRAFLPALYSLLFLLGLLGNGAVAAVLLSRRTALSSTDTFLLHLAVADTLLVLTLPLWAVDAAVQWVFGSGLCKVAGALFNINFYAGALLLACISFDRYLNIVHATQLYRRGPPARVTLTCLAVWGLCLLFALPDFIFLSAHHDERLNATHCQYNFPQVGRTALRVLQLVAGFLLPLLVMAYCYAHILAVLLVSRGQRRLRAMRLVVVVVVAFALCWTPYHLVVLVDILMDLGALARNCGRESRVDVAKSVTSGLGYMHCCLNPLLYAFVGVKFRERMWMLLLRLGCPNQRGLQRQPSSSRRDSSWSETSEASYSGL
Put plainly: [35S]GTPγS exchange assay, CXCR3 receptor inhibition (hI-TAC-induced GTPγS-binding). The test is classed as biochemical. The note with it: -log IC50 (molar) inhibiting 50% of specific I-TAC-induced GTPγS-binding; membranes of human CXCR3-transfected CHO cells. The protocol: CXCR3 Receptor Inhibition was Examined in a [^35S]GTPγS Exchange Assay
The exchange of guanosine 5′-[^35S]triphosphate was measured on membranes of human CXCR3-transfected CHO cells. [^35S]GTPγS exchange assays were performed in 96-well plates with 10 μg of membrane protein/well using basic flashplates (Perkin Elmer). Compounds were dissolved in DMSO and diluted with incubation buffer to yield required concentrations with 9% DMSO. Incubation buffer is composed of 20 mM HEPES, 100 mM NaCl, 3 μM GDP and 1 mM MgCl2, pH 7.4. […] Compound, membranes, hI-TAC (interferon-inducible T-cell alpha chemoattractant) and [^35S]GTPγS were added in a total volume of 200 μl. First, 20 μl of the appropriate compound dilution and 140 μl membranes from CXCR3-CHO cells were dissolved in membrane incubation buffer and pre-incubated for 30 minutes at 30° C. Then, 20 μl of hI-TAC dissolved at 30 nM in incubation buffer was added to the membranes and the mixture containing 1% of DMSO was incubated for another 30 minutes at 30° C. […] After 1 minute shaking and 30 minutes incubation at 30° C., flashplates were centrifuged for 5 minutes at 2500 rpm at room temperature. Flashplate bound radioactivity was determined by liquid scintillation counting. Basal GTPγS-binding was measured in 8 wells with membranes incubated in the same volume with 1% DMSO, without I-TAC. Maximal GTPγS-binding was measured in 8 wells with membranes incubated with 1% DMSO and 3 nM I-TAC. […] IC50 values were calculated using non-linear regression in Graphpad Prism.
Background: GTPγS resists hydrolysis and so accumulates on activated G proteins.
For `CC(C)N1C(=O)CCC(c2ccccc2)(C2CCN(Cc3ccc(Br)cc3)CC2)C1=O` (stereo not shown) [Compound 127], the pIC50 came to 5.3.
For the molecule `O=C1CCC(c2ccccc2)(C2CCN(Cc3ccc(Br)cc3)CC2)CN1` (stereo not shown) [Compound 5], the pIC50 was determined as 6.3.
On the same count and under the same terms, the figure for `O=C1CCC(c2cccc(C(=O)NCCCO)c2)(C2CCN(Cc3ccc(Br)cc3)CC2)C(=O)N1` (stereo not shown) [Compound 91] is 5.9; for `O=C1CCC(c2ccccn2)(C2CCN(Cc3ccc(Br)cc3)CC2)C(=O)N1` (stereo not shown) [Compound 30] it is 6.3.
For `CCN1C(=O)CCC(c2ccccc2)(C2CCN(Cc3ccc(Br)cc3)CC2)C1=O` (stereo not shown) [Compound 126], the pIC50 was 5.6.
The same measure, in the same setting: the figure for `CNC(=O)c1cccc(C2(C3CCN(Cc4ccc(Br)cc4)CC3)CCC(=O)NC2=O)c1` (stereo not shown) [Compound 32] is 5.5; for `O=C1NCCCC1(c1ccccc1)C1CCN(Cc2ccc(Br)cc2)CC1` (stereo not shown) [Compound 142] it is 5.8.

The test is the same for the next values; noted with them: -log IC50 (molar) inhibiting 50% of specific I-TAC-induced GTPγS-binding; membranes of human CXCR3-transfected CHO cells; read-out: pIC50 (converted).
In the case of `COc1cccc(C2(C3CCN(Cc4ccc(Cl)c(Cl)c4)CC3)CCC(=O)NC2=O)c1` (stereo not shown) [Compound 84], the IC50 is 2 µM.
Regarding `O=C1CCC(c2cccc(C(F)(F)F)c2)(C2CCN(Cc3ccc(Br)cc3)CC2)C(=O)N1` (stereo not shown) [Compound 90], the IC50 was 1.58 µM.
On the same count and under the same terms, the figure for `COc1ccc(S(=O)(=O)O)cc1C1(C2CCN(Cc3ccc(Br)cc3)CC2)CCC(=O)NC1=O` (stereo not shown) [Compound 6] is 0.158 µM; for `O=C1CCC(c2ccc(F)cc2)(C2CCN(Cc3ccc4ccccc4c3)CC2)C(=O)N1` (stereo not shown) [Compound 150] it is 1 µM.
Still for that read-out and setting: to `O=C1CCC(c2ccccc2)(C2CCN(Cc3ccc(F)c(Cl)c3)CC2)C(=O)N1` (stereo not shown) [Compound 55] belongs 3.16 µM.
On the same count and under the same terms, the figure for `O=C1CCC(c2ccc(F)cc2F)(C2CCN(Cc3ccc(Br)cc3)CC2)C(=O)N1` (single isomer, unassigned) [Compound 166] is 0.0631 µM; for `CC(=O)Nc1ccccc1C1(C2CCN(Cc3ccc(Br)cc3)CC2)CCC(=O)NC1=O` (stereo not shown) [Compound 24] it is 1 µM; for `O=C1CCC(c2ccccc2)(C2CCN(Cc3ccc(F)c(F)c3F)CC2)C(=O)N1` (stereo not shown) [Compound 50] it is 1.58 µM.
For `O=C1CCC(c2cccc(Cl)c2)(C2CCN(Cc3ccc(Cl)c(Cl)c3)CC2)C(=O)N1` (stereo not shown) [Compound 81], the IC50 was 3.98 µM.
Still for that read-out and setting: to `O=C1CCC(c2ccccc2)(C2CCN(Cc3ccc(Br)c(F)c3)CC2)C(=O)N1` (stereo not shown) [Compound 16a] belongs 0.316 µM.
Regarding `O=C1CCC(c2ccc(F)cc2)(C2CCN(Cc3ccc(Cl)c(Cl)c3)CC2)CN1` (stereo not shown) [Compound 141], the IC50 is 1.58 µM.
Still for that read-out and setting: to `CN1C(=O)CCC(c2ccccc2)(C2CCN(Cc3ccc(C(F)(F)F)cc3)CC2)C1=O` (stereo not shown) [Compound 131] belongs 3.98 µM; to `O=C1CCC(c2ccccc2)(C2CCN(Cc3ccc(Br)cc3F)CC2)C(=O)N1` (stereo not shown) [Compound 94], 0.501 µM.
Still for that read-out and setting: to `CC(c1ccc(Br)cc1)N1CCC(C2(c3ccccc3)CCC(=O)NC2=O)CC1` (stereo not shown) [Compound 1] belongs 0.398 µM.
In the case of `O=C1CCC(c2ccccc2)(C2CCN(Cc3cc4cc(Br)ccc4o3)CC2)C(=O)N1` (stereo not shown) [Compound 158], the IC50 is 1.26 µM.
The same measure, in the same setting: the figure for `O=C1CCC(c2ccccc2)(C2CCN(Cc3ccc(Cl)s3)CC2)C(=O)N1` (stereo not shown) [Compound 154] is 2.51 µM; for `O=C1CCC(c2ccc(F)cc2)(C2CCN(Cc3ccc(Br)cc3)CC2)C(=O)N1` (stereo not shown) [Compound 92] it is 1 µM; for `O=C1CCC(c2ccccc2)(C2CCN(Cc3ccc(Cl)cc3Cl)CC2)CN1` (stereo not shown) [Compound 137] it is 0.631 µM.
The same measure, in the same setting: to `O=C1CCC(c2cccnc2)(C2CCN(Cc3ccc(Cl)c(Cl)c3)CC2)C(=O)N1` (stereo not shown) [Compound 177] belongs 1 µM; to `COc1ccc(C2(C3CCN(Cc4ccc(Br)cc4)CC3)CCC(=O)NC2=O)cc1` (stereo not shown) [Compound 93], 3.98 µM; to `O=C1CCC(c2ccccc2)(C2CCN(Cc3ccc(F)cc3)CC2)CN1` (stereo not shown) [Compound 133], 1.58 µM.
On the same count and under the same terms, the figure for `O=C1CCC(c2cccnc2)(C2CCN(Cc3cc4cc(Br)ccc4o3)CC2)C(=O)N1` (stereo not shown) [Compound 184] is 1.58 µM; for `O=C1CCC(c2ccc(F)cc2)(C2CCN(Cc3ccc(C(F)(F)F)cc3)CC2)C(=O)N1` (stereo not shown) [Compound 106] it is 3.98 µM.
As for `O=C1CCC(c2cccnc2)(C2CCN(Cc3ccc(F)c(F)c3F)CC2)C(=O)N1` (stereo not shown) [Compound 175], the IC50 was 1 µM.
For the molecule `O=C1CCC(c2ccccc2)(C2CCN(Cc3ccc(C(F)(F)F)cc3)CC2)C(=O)N1` (stereo not shown) [Compound 102], the IC50 is 3.98 µM.
The same measure, in the same setting: to `O=C1CCC(c2cccc(Cl)c2)(C2CCN(Cc3ccc(C(F)(F)F)cc3)CC2)C(=O)N1` (stereo not shown) [Compound 103] belongs 3.98 µM.
Still for that read-out and setting: the figure for `O=C1CCC(c2ccccc2)(C2CCN(Cc3ccc(Cl)cc3)CC2)C(=O)N1` (stereo not shown) [Compound 20] is 0.794 µM.
For `CC1CC(=O)NC(=O)C1(c1ccccc1)C1CCN(Cc2ccc(Br)cc2)CC1` (stereo not shown) [Compound 209], the IC50 was 0.501 µM.
The same measure, in the same setting: the figure for `O=C1CCC(c2ccccc2)(C2CCN(Cc3ccc(Br)cc3)CC2)C(=O)N1` (single isomer, unassigned) [Compound 14] is 0.631 µM; for `O=C1CCC(c2ccncc2)(C2CCN(Cc3cc4cc(Br)ccc4o3)CC2)C(=O)N1` (stereo not shown) [Compound 183] it is 1.26 µM.
In the case of `O=C1CCC(c2ccc(F)cc2F)(C2CCN(Cc3ccc(Cl)cc3Cl)CC2)C(=O)N1` (stereo not shown) [Compound 200], the IC50 was 0.631 µM.
Regarding `O=C1CCC(c2ccc(F)cc2)(C2CCN(Cc3ccc(Cl)s3)CC2)C(=O)N1` (stereo not shown) [Compound 153], the IC50 was 1.26 µM.
Same read-out and setting: the figure for `O=C1CCC(c2cccc(C(F)(F)F)c2)(C2CCN(Cc3ccc(OC(F)F)cc3)CC2)C(=O)N1` (stereo not shown) [Compound 110] is 7.94 µM; for `O=C1CCC(c2ccc(F)cc2)(C2CCN(Cc3ccc(F)c(F)c3F)CC2)C(=O)N1` (stereo not shown) [Compound 54] it is 1.26 µM; for `O=C1CCC(c2ccccc2)(C2CCN(Cc3ccc(Cl)cc3)CC2)C(=O)N1` (stereo not shown) [Compound 19] it is 1.26 µM.
On the same count and under the same terms, the figure for `O=C1CCC(c2cccc(Cl)c2)(C2CCN(Cc3ccc(Cl)s3)CC2)C(=O)N1` (stereo not shown) [Compound 152] is 0.794 µM; for `O=C1CCC(c2ccccc2)(C2CCN(Cc3ccc(Cl)cc3Cl)CC2)C(=O)N1` (stereo not shown) [Compound 70] it is 2.51 µM; for `CSc1ccc(CN2CCC(C3(c4cccc(Cl)c4)CCC(=O)NC3=O)CC2)cc1` (stereo not shown) [Compound 117] it is 6.31 µM.
As to `COc1ccc(CN2CCC(C3(c4ccccc4)CCC(=O)NC3=O)CC2)c(OC)c1` (stereo not shown) [Compound 108], the IC50 was 7.94 µM.
Still for that read-out and setting: to `COC(=O)CCN1C(=O)CCC(c2ccccc2)(C2CCN(Cc3ccc(C(F)(F)F)cc3)CC2)C1=O` (stereo not shown) [Compound 132] belongs 0.631 µM.
Same read-out and setting: to `O=C1CCC(c2ccccc2)(C2CCN(Cc3ccc(F)cc3)CC2)C(=O)N1` (stereo not shown) [Compound 45] belongs 3.98 µM; to `O=C1CCC(c2cccc(Cl)c2)(C2CCN(Cc3ccc(Cl)cc3)CC2)C(=O)N1` (stereo not shown) [Compound 63], 2 µM; to `Cc1cccc(C2(C3CCN(Cc4ccc(Cl)c(F)c4)CC3)CCC(=O)NC2=O)c1` (stereo not shown) [Compound 78], 0.794 µM.

Still in this test, the particulars now being: pIC50, -log IC50 (molar) inhibiting 50% of specific I-TAC-induced GTPγS-binding; membranes of human CXCR3-transfected CHO cells.
The molecule `O=C1CCC(c2ccccc2)(C2CCN(Cc3ccc(Cl)c(C(F)(F)F)c3)CC2)C(=O)N1` (stereo not shown) [Compound 86] gave an IC50 of 2 µM.

The test is the same for the next values; noted with them: read-out: pIC50 (converted).
On to `O=C1CCC(c2ccccc2)(C2CCN(Cc3ccc(Cl)c(F)c3)CC2)C(=O)N1` (stereo not shown) [Compound 76], for which the IC50 is 0.316 µM.
